One data set relates to whole blood. The data set can be described thus: Coagulation tests by thromboelastography. In kind it is in vivo, mouse. To be noted: 24 hours post IV; ML355 1.5 mg/kg, sHDL 50 mg/kg. On the procedure: Male and female C57BL/6J mice (n=6) were intravenously injected with vehicle control (equivalent volume of saline), ML355 (1.5 mg/kg), sHDL (50 mg/kg) or ML355-sHDL (sHDL at 50 mg/kg and ML355 at 1.5 mg/kg), respectively. 24 hours after administration, mice were anesthetized by intraperitoneal injection of ketamine/xylazine mixture as described above. Whole blood was collected via vena cava using a 25 G syringe containing sodium citrate 3.8% (blood to citrate volume ratio is […]). 340 μL citrated blood was mixed with 20 μL CaCl2 (0.2 mol/L), and viscoelastic properties of whole blood clot formation was studied under low shear stress using a Heamoscope TEG 5000 Thrombelastograph Hemostasis Analyzer (Haemonetics Corp., Braintree, Massachusetts, USA) according to the manufacturer's instructions. Major coagulation parameters including R time (time to formation of the initial fibrin threads), Alpha angle (the rapidity with which the clot forms), K time (the time until the clot reaches a certain strength) and maximum amplitude (clot's maximum strength) were analyzed and compared among different groups.

For data set [1] the following is noted: pH 7.4 PBS; cited from earlier work.
In data set [2] the test system is C57BL/6J mice. The data set can be described thus: FeCl3-induced carotid artery thrombosis model. To be noted: IV 24 hours before 10% FeCl3 injury. In kind it is in vivo, mouse. On the procedure:
Male and female C57BL/6J mice (n=6) were intravenously injected with vehicle control (equivalent volume of saline), ML355 (1.5 mg/kg), sHDL (50 mg/kg) or ML355-sHDL (sHDL at 50 mg/kg and ML355 at 1.5 mg/kg), respectively. 24 hours post-administration, mice were anesthetized as described above and tail veins were injected with a DyLight 488 anti-GPIb (1 μg/g; Emfret, Elbelstadt, Germany) to label circulating resting platelets in mice prior to intravital microscopy imaging. The mice were placed on a heating pad and the right common carotid artery was prepared under the dissecting microscope. Then, the mice were placed on the microscopic stage and blood flow in the carotid artery was visualized under 10× air objective using a Zeiss Axio Examiner Z1 upright fluorescent microscopy. Carotid artery injury was induced by topically placing a 10% FeCl3 saturated Whatman paper for 3 minutes under recording. Images of platelet adhesion and the dynamics of thrombus formation were recorded for 30 minutes using a high-speed sCMOS camera using Slidebook 6.0.

The subject of data set [3] is C57BL/6J mice. The data set can be described thus: Mouse tail bleeding assay. To be noted: 24 hours post IV; ML355 1.5 mg/kg, sHDL 50 mg/kg. In kind it is in vivo. As to the method: Male and female C57BL/6J mice (n=6) were intravenously dosed with the following treatments: 1) vehicle control (equivalent volume); 2) ML355 (1.5 mg/kg); 3) sHDL (50 mg/kg); or 4) ML355-sHDL (sHDL at 50 mg/kg and ML355 at 1.5 mg/kg). The tail bleeding assay was performed post 24 hour of treatment as previously described (44, 56). Briefly, mice were anesthetized as described above and placed on a heating pad. Five millimeters of tail tip was excised, and the tails were immediately immersed in 14 mL of sterile saline at 37° C. Bleeding time was recorded as the cessation of blood flow from the tail for at least […] using a stopwatch. The amount of blood loss from tail tip was quantified by measuring hemoglobin using Drabkin's reagent (Sigma). Briefly, blood samples were pelleted at 500 g for 10 minutes at room temperature, and the pellet was resuspended in 5 mL Drabkin's Reagent and incubated at room temperature for 15 minutes. Amount of hemoglobin lost was quantified by comparing the absorbance of the samples at 540 nm using SpectraMax i3 microplate reader (Molecular Devices LLC., San Jose, CA) to a standard curve of bovine hemoglobin in Drabkin's reagent.

In a further data set the test system is washed human platelets. The data set can be described thus: In vitro washed human platelet aggregation test (thrombin-induced). In kind it is cell-based. To be noted: ML355 10 μM, sHDL 100 μg/mL, 15 minutes. On the procedure: Human platelets were prepared and aggregation was assayed as described previously (44, 45, 56). Platelets were incubated with DMSO (equivalent volume to dissolve ML355) and treated with control, ML355 (10 μM), sHDL (100 μg/mL), or ML355-sHDL (sHDL at 100 μg/mL and ML355 at 10 μM) for 15 minutes. In addition, untreated platelets were included as control. Platelet aggregation was induced by various doses of thrombin (0.1-1 nM) as reported in previous studies (44). Aggregation was measured in response to thrombin with a lumi-aggregometer (Model 700D; Chrono-Log) under stirring conditions at 1100 rpm at 37° C.

The test system of data set [4] is C57BL/6J mice. As to the kind of experiment: Laser-induced cremaster arteriole thrombosis model. To be noted: IV 24 hours before injury; ML355 1.5 mg/kg, sHDL 50 mg/kg. In kind it is in vivo, mouse. On the procedure:
Male C57BL/6J mice (n=3) were intravenously dosed with the following treatments: 1) saline control (equivalent volume); 2) ML355 (1.5 mg/kg); 3) sHDL (50 mg/kg); or 4) ML355-sHDL (sHDL at 50 mg/kg and ML355 at 1.5 mg/kg). 24 hours post-administration, mice were anesthetized and surgically prepared as above described. DyLight 647-conjugated rat anti-mouse platelet GP11:43 antibody (0.1 μg/g; X649; EMFRET Analytics) was administered by jugular vein cannula prior to vascular injury. Multiple independent thrombi (8-10) were induced in the arterioles (30-50 μm diameter) in each mouse (3 mice per group) by a laser ablation system. All captured images were analyzed for change in fluorescent intensity over time of thrombus formation by subtracting fluorescent background defined on an uninjured section of the vessel using the Slidebook program. To monitor and compare dynamic thrombus formation among different treatment groups, the relative fluorescent intensity of Alexa Flour 647-labled platelets (recruited within thrombus) was plotted using the mean fluorescence at each time point. Data were evaluated for significance with two-way ANOVA and Mann-Whitney test for nonparametric data using Prism 6 software (Graphpad, La Jolla, CA, USA).

In the next data set the test system is washed mouse platelets. As to the kind of experiment: Ex vivo washed mice platelet activation inhibition test (thrombin-induced aggregation). To be noted: for platelet aggregation: 24 hours after IV ML355 1.5 mg/kg, sHDL 50 mg/kg. In kind it is in vivo. As to the method: Male and female C57BL/6J mice were divided into four groups (n=4) and intravenously dosed with the following formulations: 1) control vehicle (equivalent volume); 2) ML355 (1.5 mg/kg); 3) sHDL (50 mg/kg); or 4) ML355-sHDL (sHDL at 50 mg/kg and ML355 at 1.5 mg/kg). 24 hours after administration, mice were sacrificed under terminal anesthesia. […] Mouse platelet preparation was performed as previously described (44, 45). Murine platelets were resuspended at 3×10^8 platelets/mL in Tyrode's buffer. Mouse platelet aggregation was induced by various doses of thrombin (0.1-0.5 nM) and measured with a lumi-aggregometer using the same method described above.

The test system of the next data set is platelets. The data set can be described thus: Phosphatidylserine exposure on platelets. In kind it is in vivo, mouse. To be noted: 1, 6 and 24 hours post IV; compared to resting platelets. On the procedure:
Male and female C57BL/6J mice (n=6) were intravenously dosed with the following treatments: 1) Saline control (equivalent volume); 2) ML355 (1.5 mg/kg); 3) sHDL (50 mg/kg); or 4) ML355-sHDL (sHDL at 50 mg/kg and ML355 at 1.5 mg/kg). At different time points post administration (1, 6 and 24 hours), the phosphatidylserine-exposure over time course in platelets from different groups were quantified by flow cytometry. Briefly, whole blood was collected from the saphenous vein and incubated with PE anti-mouse CD41 Antibody (BioLegend #133906) for platelet labeling and Annexin V, Alexa Fluor™ 647 conjugate (phosphatidylserine-exposure) (Thermo Fisher Scientific). The mean fluorescent intensity of Annexin in platelets was quantified by flow cytometry. In addition, blood collected from mice prior to treatment was taken as resting platelets (negative control) and blood stimulated with PAR4-AP (200 μM) was used as activated platelets (positive control).

For the compound `COc1cccc(CNc2ccc(S(=O)(=O)Nc3nc4ccccc4s3)cc2)c1O` [ML355, N-2-benzothiazolyl-4-[[(2-hydroxy-3-methoxyphenyl)methyl]amino]-benzenesulfonamide], the “coagulation (TEG parameters R time, K time, alpha angle, MA)” value with whole blood is “did not compromise the coagulation”. The estimated solubility in data set [1] is < 5 µg/mL. The “thrombus growth (and vessel occlusion)” value with C57BL/6J mice [2] was “delayed and unstable”. In addition, the “mean vessel occlusion time” value in the data set with C57BL/6J mice [2] (ML355 1.5 mg/kg, sHDL 50 mg/kg) came to 11.0 ± 2.3 min. The “blood loss evaluated by measuring hemoglobin” value in the data set with C57BL/6J mice [3] is on record as “no effect”. The tail bleeding time entry in the data set with C57BL/6J mice [3] was “did not prolong”. Besides, the platelet aggregation in the data set on washed human platelets (0.1 nM thrombin) was determined as 5.6±2.5%; with washed human platelets (0.25 nM thrombin), 40.4±6.8%; in the data set on washed human platelets (0.5 nM thrombin), 76.4±4.7%; with washed mouse platelets (0.1 nM thrombin) it was 20.3±3.5%; in the data set on washed mouse platelets (0.25 nM thrombin), 32.6±6.6%. Besides, the “inhibition of thrombus formation (platelet accumulation in thrombi)” value in the data set with C57BL/6J mice [4] is recorded as “varying levels of inhibition”. Moreover, the “inhibitory effects on platelet aggregation” value with washed mouse platelets (0.5 nM thrombin, 24 hours after IV dosing) was “overcome”. Also, the platelet phosphatidylserine exposure result with platelets was “did not increase”.

These data come from patent US20230381202A1, “COMPOSITIONS AND METHODS FOR TREATING CARDIOVASCULAR RELATED DISORDERS” (The Regents of the University of Michigan, priority 2020, published 2023).
